The results in this text go back to patent US8329919B2, “Salt hydrates” (Novartis AG, priority 2002, dated 2012).

Where “and” joins values, the source holds several entries; their conditions need not be identical. Equal values may be shown once.

The data set in a line: Thermogravimetry: weight loss, i.e. water loss, as a function of temperature (thermobalance TGS-2). Format: physicochemical. To be noted: heating rate 10 K·min^−1, water-free N2 atmosphere. The protocol: Using thermogravimetry, in a water-free N2 atmosphere, the weight loss, i.e. the water loss for the tetrahydrate of the calcium salt of valsartan A1,Ca as a function of temperature, was measured at a heating rate of 10 K·min^−1. […]
Using thermogravimetry, in a water-free N2 atmosphere, the weight loss, i.e. the water loss for the trihydrate of the calcium salt of valsartan in the polymorphic form B1,Ca as a function of temperature, was measured at a heating rate of 10 K·min^−1.
Using thermogravimetry, in a water-free N2 atmosphere, the weight loss, i.e. the water loss for the trihydrate B2,Ca as a function of temperature, was measured at a heating rate of 10 K·min^−1. The results for the polymorph B2,Ca of the trihydrate of the calcium salt of valsartan are illustrated in table 4.
Using thermogravimetry, in a water-free N2 atmosphere, the weight loss, i.e. the water loss for the trihydrate B3,Ca as a function of temperature, was measured at a heating rate of 10 K·min^−1. The results for the polymorphic form B3,Ca of the trihydrate of the calcium salt of valsartan are illustrated in table 5.
Using thermogravimetry, in a water-free N2 atmosphere, the weight loss, i.e. the water loss for the di-(calcium salt of valsartan) pentahydrate D1,Ca as a function of temperature, was measured at a heating rate of 10 K·min^−1.
The instrument used for the calorimetric data is throughout a DSC Pyris 1 (Differential Scanning calorimeter) obtained from Perkin-Elmer Corp., Norwalk, Conn. USA. The measurements are performed with samples enclosed in a sealed gold specimen container with an internal free volume of ca. 22 microliters, with a sample weight of 2 to 4 mg and with a heating rate of Tr=10K·min^−1. […] The instrument used was a TGS-2 (Perkin-Elmer Corp., Norwalk, Conn. USA) and the measurement was performed in a water free atmosphere. The heating rate selected was 10 K·min^−1. The weight loss is illustrated in table 7.
The heating rate selected was 10K·min^−1.
Using thermogravimetry, in a water-free N2 atmosphere, the weight loss, i.e. the water loss for the tetrahydrate as a function of temperature, was measured at a heating rate of 10 K·min^−1. The results for the calcium salt of valsartan tetrahydrate A0,Ca are listed in the following: […]
Using thermogravimetry, in a water-free N2 atmosphere, the weight loss, i.e. the water loss for the tetrahydrate of the calcium salt of valsartan as a function of temperature, was measured at a heating rate of 10 K·min^−1.

As for `CCCCC(=O)N(Cc1ccc(-c2ccccc2-c2nnn[nH]2)cc1)[C@H](C(=O)O)C(C)C` [A0,Mg, (S)—N-(1-carboxy-2-methyl-prop-1-yl)-N-pentanoyl-N-[2′-(1H-tetrazol-5-yl)-biphenyl-4-ylmethyl]-amine], the “weight loss or water loss in %” value (temperature 25 °C) stood at 0.0%; the “weight loss or water loss in %” value (temperature 50 °C) stood at 1.2%; the “weight loss or water loss in %” value (temperature 75 °C) stood at 4.2%; the “weight loss or water loss in %” value (temperature 100 °C) is on record as 11.0%; the “weight loss or water loss in %” value (temperature 125 °C) was 16.7%; the “weight loss or water loss in %” value (temperature 150 °C) was 17.7%. Also, the “weight loss or water loss in %” value is listed as 18.3% (temperature 175 °C); 18.5% (temperature 200 °C); 18.7% (temperature 225 °C); 18.9% (temperature 250 °C); 19.3% (temperature 275 °C).
As to `CCCCC(=O)N(Cc1ccc(-c2ccccc2-c2nnn[nH]2)cc1)[C@H](C(=O)O)C(C)C` [A1,Mg, (S)—N-(1-carboxy-2-methyl-prop-1-yl)-N-pentanoyl-N-[2′-(1H-tetrazol-5-yl)-biphenyl-4-ylmethyl]-amine], the “weight loss or water loss in %” value is 0.1 ± 0.1% and 0% (temperature 25 °C); 1.0 ± 0.3% and 0.9% (temperature 50 °C); 6.8 ± 0.5% and 6.8% (temperature 75 °C); 14.1 ± 0.5% and 14.3% (temperature 100 °C); 15.6 ± 0.5% and 15.7% (temperature 125 °C); 16.4 ± 0.5% and 16.5% (temperature 150 °C). Moreover, the “weight loss or water loss in %” value by setting is: (temperature 175 °C) 16.9 ± 0.5% and 17.0%; (temperature 200 °C) 17.1 ± 0.5% and 17.2%; (temperature 225 °C) 17.3 ± 0.5% and 17.4%; (temperature 250 °C) 17.6 ± 0.5% and 17.8%; (temperature 275 °C) 18.3 ± 0.5% and 18.3%.
`CCCCC(=O)N(Cc1ccc(-c2ccccc2-c2nnn[nH]2)cc1)[C@H](C(=O)O)C(C)C` [A2,Ca, (S)—N-(1-carboxy-2-methyl-prop-1-yl)-N-pentanoyl-N-[2′-(1H-tetrazol-5-yl)-biphenyl-4-ylmethyl]-amine]: the “weight loss or water loss in %” value reads like this: (temperature 25 °C) 0 ± 0.3% and 0%; (temperature 50 °C) 0.1 ± 0.3% and 0%; (temperature 75 °C) 0.5 ± 0.5% and 0%; (temperature 100 °C) 4.9 ± 0.5% and 4.7%; (temperature 125 °C) 11.2 ± 0.5% and 11.1%; (temperature 150 °C) 12.2 ± 0.5% and 11.9%. The “weight loss or water loss in %” value is 12.6 ± 0.5% and 12.3% (temperature 175 °C); 12.7 ± 0.5% and 12.5% (temperature 200 °C); 12.8 ± 0.5% and 12.6% (temperature 225 °C); 12.8 ± 0.5% and 12.7% (temperature 250 °C); 13.0 ± 0.5% and 13.3% (temperature 275 °C).
For `CCCCC(=O)N(Cc1ccc(-c2ccccc2-c2nnn[nH]2)cc1)[C@H](C(=O)O)C(C)C` [B1,Mg, (S)—N-(1-carboxy-2-methyl-prop-1-yl)-N-pentanoyl-N-[2′-(1H-tetrazol-5-yl)-biphenyl-4-ylmethyl]-amine], the “weight loss or water loss in %” value runs as follows: (temperature 25 °C) 0 ± 0.1%; (temperature 50 °C) 2.1 ± 0.3%; (temperature 75 °C) 6.5 ± 0.5%; (temperature 100 °C) 9.5 ± 0.5%; (temperature 125 °C) 11.1 ± 0.5%; (temperature 150 °C) 12.0 ± 0.5%. The “weight loss or water loss in %” value runs as follows: (temperature 175 °C) 12.5 ± 0.5%; (temperature 200 °C) 12.8 ± 0.5%; (temperature 225 °C) 13.0 ± 0.5%; (temperature 250 °C) 13.6 ± 0.5%; (temperature 275 °C) 14.3 ± 0.5%.
With `CCCCC(=O)N(Cc1ccc(-c2ccccc2-c2nn[n-]n2)cc1)[C@H](C(=O)[O-])C(C)C.CCCCC(=O)N(Cc1ccc(-c2ccccc2-c2nn[n-]n2)cc1)[C@H](C(=O)[O-])C(C)C.O.O.O.O.O.[Ca+2].[Ca+2]` [D1,Ca, di-{calcium salt of (S)—N-(1-carboxy-2-methyl-prop-1-yl)-N-pentanoyl-N-[2′-(1H-tetrazol-5-yl)-biphenyl-4-ylmethyl]-amine}pentahydrate], the “weight loss or water loss in %” value (temperature 25 °C) was 0.1 ± 0.1% and 0.1%; the “weight loss or water loss in %” value (temperature 50 °C) was 1.3 ± 0.3% and 1.7%; the “weight loss or water loss in %” value (temperature 75 °C) is 2.8 ± 0.5% and 3.3%; the “weight loss or water loss in %” value (temperature 100 °C) was 5.1 ± 0.5% and 5.1%; the “weight loss or water loss in %” value (temperature 125 °C) is 7.4 ± 0.5% and 7.1%; the “weight loss or water loss in %” value (temperature 150 °C) is 8.0 ± 0.5% and 7.7%. The “weight loss or water loss in %” value (temperature 175 °C) was 8.1 ± 0.5% and 7.9%; the “weight loss or water loss in %” value (temperature 200 °C) is 8.2 ± 0.5% and 8.0%; the “weight loss or water loss in %” value (temperature 225 °C) was 8.2 ± 0.5% and 8.1%; the “weight loss or water loss in %” value (temperature 250 °C) was 8.3 ± 0.5% and 8.3%; the “weight loss or water loss in %” value (temperature 275 °C) was 8.6 ± 0.5% and 8.6%.
On to `CCCCC(=O)N(Cc1ccc(-c2ccccc2-c2nnn[nH]2)cc1)[C@H](C(=O)O)C(C)C` [F1,Ca, (S)—N-(1-carboxy-2-methyl-prop-1-yl)-N-pentanoyl-N-[2′-(1H-tetrazol-5-yl)-biphenyl-4-ylmethyl]-amine], for which the “weight loss or water loss in %” value (temperature 25 °C) is reported as 0.6%; the “weight loss or water loss in %” value (temperature 50 °C) amounted to 3.0%; the “weight loss or water loss in %” value (temperature 75 °C) is listed as 5.6%; the “weight loss or water loss in %” value (temperature 100 °C) was 7.1%; the “weight loss or water loss in %” value (temperature 125 °C) stood at 7.9%; the “weight loss or water loss in %” value (temperature 150 °C) came out at 8.3%. Besides, the “weight loss or water loss in %” value by setting is: (temperature 175 °C) 8.6%; (temperature 200 °C) 8.6%; (temperature 225 °C) 8.8%.
Take “(S)—N-(1-carboxy-2-methyl-prop-1-yl)-N-pentanoyl-N-[2′-(1H-tetrazol-5-yl)-biphenyl-4-ylmethyl]-amine calcium salt tetrahydrate [A0,Ca]”: the “weight loss or water loss in %” value by setting is: (temperature 25 °C) 0%; (temperature 50 °C) 0%; (temperature 75 °C) 0.5%; (temperature 100 °C) 3.5%; (temperature 125 °C) 10.2%; (temperature 150 °C) 12.4%. Also, the “weight loss or water loss in %” value was determined as 12.8% (temperature 175 °C); 12.9% (temperature 200 °C); 13.0% (temperature 225 °C); 13.3% (temperature 250 °C); 13.2% (temperature 275 °C).
For “(S)—N-(1-carboxy-2-methyl-prop-1-yl)-N-pentanoyl-N-[2′-(1H-tetrazol-5-yl)-biphenyl-4-ylmethyl]-amine calcium salt tetrahydrate [A1,Ca]”, the “weight loss or water loss in %” value was 1.1 ± 0.5% and 1.1% (temperature 25 °C); 3.3 ± 0.5% and 3.3% (temperature 50 °C); 5.1 ± 0.5% and 5.1% (temperature 75 °C); 9.6 ± 1.0% and 9.6% (temperature 100 °C); 12.2 ± 0.5% and 12.1% (temperature 125 °C); 12.9 ± 0.5% and 12.9% (temperature 150 °C). The “weight loss or water loss in %” value runs as follows: (temperature 175 °C) 13.2 ± 0.5% and 13.2%; (temperature 200 °C) 13.3 ± 0.5% and 13.3%; (temperature 225 °C) 13.4 ± 0.5% and 13.4%; (temperature 250 °C) 13.3 ± 0.5% and 13.3%; (temperature 275 °C) 13.7 ± 0.5% and 13.7%.
